Measurements published in patent publication US5244602A, “Photochromic naphthopyrans” (PPG Industries, Inc., priority 1990, dated 1993).

How the values were obtained:
Assay type in all cases: physicochemical
[1] = Coloring and bleaching behaviour; details: for bleaching: room temperature
[2] = Absorption maximum of naphthopyran imbibed into polymerizate; details: imbibed in poly[diethylene glycol bis(allyl carbonate)]; UV 365 nm lamp
Excerpt: (§1) The naphthopyran compounds of Examples 1-11 were imbibed into separate polymerizates of poly[diethylene glycol bis(allyl carbonate)]. On exposure to ultraviolet light from a 365 nm lamp, the imbibed polymer samples elicited a photochromic response which faded on removal of the UV light source.

[3] = Fade rate (T 1/2) of naphthopyran imbibed into polymerizate after UV activation; details: At Room Temperature; imbibed in poly[diethylene glycol bis(allyl carbonate)]; UV 365 nm lamp
Excerpt: as §1
^1. At Room Temperature

Row | Compound | color change on exposure to near ultraviolet [1] | bleaching [1] | Absorption λ Max [2] [NM] | Fade Rate T 1/2 [3] [min]
1 | C1=CC(c2ccccc2)(c2ccccc2)Oc2c1ccc1ccccc21 [2,2-diphenyl-2H-naphtho[1,2-b] pyrin] | colors on exposure to near ultraviolet light at room temperature | does not bleach in a reasonable period of time | – | –
2 | C1=CC(c2ccccc2)(c2ccccc2)Oc2ccc3ccccc3c21 [3,3-diphenyl-3H-naphtho[2,1-b]pyran] | change color on exposure to the near ultraviolet | bleaches too rapidly for use in an ophthalmic lens | – | –
3 | CC(=O)Oc1cc2ccccc2c2c1OC(c1ccccc1)(c1ccccc1)C=C2 [Example 1, 5-acetoxy-3,3-diphenyl-3H-naphtho[2,1-b]pyran] | – | – | 455 | 1.35
4 | C1=CC(c2ccccc2)(c2ccccc2)Oc2c(Oc3ccccn3)cc3ccccc3c21 [Example 2, 5(2-pyridyloxy)-3,3-diphenyl-3H naphtho[2,1-b]pyran] | – | – | 440 | 1.57
5 | COc1ccc(C2(c3ccccc3)C=Cc3c(c(OC(C)=O)cc4ccccc34)O2)cc1 (stereo not drawn) [Example 3, 5-acetoxy-3-phenyl-3-p-methoxy phenyl-3H-naphtho[2,1-b]pyran] | – | – | 483 | 1.05
6 | COc1ccc(C2(c3ccccc3)C=Cc3c(c(OC(=O)c4ccccc4)cc4ccccc34)O2)cc1 (stereo not drawn) [Example 4, 5-benzoyloxy-3-phenyl-3-p-methoxy phenyl-3H-naphtho[2,1-b]pyran] | – | – | 483 | 3.5
7 | O=C(Oc1cc2ccccc2c2c1OC(c1ccccc1)(c1ccccc1)C=C2)c1ccccc1 [Example 5, 5-benzoyloxy-3,3-diphenyl-3H-naphtho[2,1-b]pyran] | – | – | 447 | 2.3
8 | CNC(=O)Oc1cc2ccccc2c2c1OC(c1ccccc1)(c1ccccc1)C=C2 [Example 6, 5-methylcarbamyloxy-3,3-diphenyl-3H-naphtho[2,1-b]pyran] | – | – | 446 | 1.67
9 | CC(=O)COc1cc2ccccc2c2c1OC(c1ccccc1)(c1ccccc1)C=C2 [Example 8, 5-(2-acetonyloxy)-3,3-diphenyl-3H-naphtho[2,1-b]pyran] | – | – | 434 | 1.6
10 | CC(=O)Oc1cc2ccccc2c2c1OC(c1ccc(C)cc1)(c1ccc(C)cc1)C=C2 [Example 9, 5-acetoxy-3,3-di(p-methylphenyl)-3H-naphtho[2,1-b]pyran] | – | – | 470 | 2.23
11 | O=C(CCl)Oc1cc2ccccc2c2c1OC(c1ccccc1)(c1ccccc1)C=C2 [Example 10, 5-chloroacetoxy-3,3-diphenyl-3H-naphtho[2,1-b]pyran] | – | – | 458 | 1.6
12 | Cc1ccc(C2(c3ccc(C)cc3)C=Cc3c(c(OC(=O)CCl)cc4ccccc34)O2)cc1 [Example 11, 5-chloroacetoxy-3,3-p-methylphenyl-3H-naphtho[2,1-b]pyran] | – | – | 476 | 1.75
